We go through one compound from patent publication US9993449B2, “(S)-3-amino-4-(difluoromethylenyl)cyclopent-1-ene-1-carboxylic acid, and related compounds as GABA aminotransferase inactivators for the treatment of epilepsy, addiction and hepatocellular carcinoma” (NORTHWESTERN UNIVERSITY, priority 2015, dated 2018).

“Also recorded” adds a separate entry of the source. Counter-ions that a name gives are not always drawn.

Series [1] relates to glucose metabolism in the hippocampus. The series is described as follows: MicroPET imaging with 18FDG: cocaine-induced increases in glucose metabolism in freely moving rats. In kind it is in vivo, rat. To be noted: 18FDG microPET, statistical parametric map, p<0.00001, Hydrochloride. An excerpt: In addition to labeled raclopride studies, [^18F]-2′-fluoro-2′-deoxy-D-glucose (^18FDG) and microPET were also used to examine the regional effects of 1 on cocaine-induced increases in glucose metabolism. ^18FDG is an analogue of glucose that gets taken up into neurons (or any cells in the human body) just like glucose. However, after ^18FDG is phosphorylated, the corresponding 6′-phosphate cannot be further metabolized in the glycolytic pathway and remains in cells. Consequently, human PET studies have used ^18 FDG for decades to map the brain. […] When a human or a rat receives a psychostimulant like cocaine, dopamine floods the synapse, causing post-synaptic neurons to fire frantically. Because this neuronal firing requires energy in the form of glucose, the result is that brain glucose metabolism increases in specific brain regions. The effect of 1 on cocaine-induced increases in glucose metabolism in freely moving rats was determined using statistical parametric mapping, in which all of the images from the cocaine-only animals were added together and then compared to the images obtained from the same animals that received 1 and cocaine. A statistical threshold (p<0.00001) was set, and a statistical parametric map, an image showing all the pixels that were statistically different between the two conditions, was generated and then overlaid on an MRI of the rat brain (FIG. 11). […]

The target in series [2] is aspartate aminotransferase (Asp-AT). The series is described as follows: Inhibition of aspartate aminotransferase. In kind it is biochemical. The following applies: reversible inhibition. The method, then: Inhibition of Aspartate Aminotransferase by 1. Microtiter plate wells were loaded with 90 μL of an assay mixture containing 100 mM potassium phosphate at pH 7.4, 5.55 mM α-ketoglutarate, 1.11 mM NADH, 5.55 mM L-aspartate, 11.1 units of malic dehydrogenase, and various concentrations of 1. After incubation of the mixture at room temperature for a few min, 10 μL of Asp-AT (3.0 units/mL in 100 mM potassium phosphate at pH 7.4) was added. The plate was shaken at room temperature for 1 min, and the absorbance was measured at 340 nm every 6 s for 90 min. All assays were performed in duplicate (FIG. 4).

In series [3] the target is alanine aminotransferase (Ala-AT). The series is described as follows: Inhibition of alanine aminotransferase. To be noted: reversible inhibition. It counts as biochemical. The source says:
Inhibition of Alanine Aminotransferase by 1. The assay was identical to that with aspartate aminotransferase except L-alanine was used as the substrate and lactate dehydrogenase was the enzyme (FIG. 5).

The next series concerns the target T1, hERG channel (Homo sapiens, UniProt Q12809).
T1 construct: host or cells: CHO-K1
The series is described as follows: Inhibition of the hERG channel (automated whole-cell patch clamp, hERG CHO-K1 cell line). It counts as cell-based. The following applies: 0.1 μM, 1 μM, and 10 μM; 5 min at room temperature. On the procedure: Inhibition of the hERG Channel. The experiments were performed by Eurofins Panlabs (Redmond, Wash. 98052, USA). hERG CHO-K1 cell line was used. The test concentrations were 0.1 μM, 1 μM, and 10 μM. The incubation time was 5 min at room temperature, cumulatively. The detection method used an automated whole-cell patch clamp. The experiments were duplicated, and the % inhibition of the tail current was averaged (FIG. 7).
(hERG is a cardiac potassium channel; its block is linked to QT prolongation.)

The next series can be described thus: Plasma protein binding. In kind it is in vitro ADME.
The target of a further series is T2, CYP2B6 (Homo sapiens, UniProt P20813).
T2 construct: tissue Eurofins Panlabs; host or cells: human liver microsomes
T2 sequence (P20813 1-491): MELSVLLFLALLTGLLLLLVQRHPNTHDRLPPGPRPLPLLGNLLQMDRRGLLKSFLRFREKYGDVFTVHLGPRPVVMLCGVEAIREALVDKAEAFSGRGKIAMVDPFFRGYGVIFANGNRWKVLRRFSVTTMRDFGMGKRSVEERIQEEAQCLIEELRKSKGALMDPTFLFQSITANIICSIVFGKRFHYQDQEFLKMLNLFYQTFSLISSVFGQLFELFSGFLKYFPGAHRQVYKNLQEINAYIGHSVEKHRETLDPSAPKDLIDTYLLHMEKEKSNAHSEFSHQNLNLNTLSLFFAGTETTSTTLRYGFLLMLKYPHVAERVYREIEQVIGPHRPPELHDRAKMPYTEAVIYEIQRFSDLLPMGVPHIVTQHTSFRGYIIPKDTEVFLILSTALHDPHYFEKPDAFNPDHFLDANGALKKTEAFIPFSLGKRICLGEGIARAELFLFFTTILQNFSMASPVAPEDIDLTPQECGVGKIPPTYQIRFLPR
The experiment in a line: CYP2B6 inhibition (HLM, bupropion substrate). It counts as in vitro ADME. To be noted: 10 μM, 10 min at 37° C. The method, then: Inhibition of Microsomal Cytochromes P450. The experiments were performed by Eurofins Panlabs (Redmond, Wash. 98052, USA). CYP1A inhibition (HLM, phenacetin substrate), CYP2B6 inhibition (HLM, bupropion substrate), CYP2C8 inhibition (HLM, paclitaxel substrate), CYP2C9 inhibition (HLM, diclofenac substrate), CYP2C19 inhibition (HLM, omeprazole substrate), CYP2D6 inhibition (HLM, dextromethorphan substrate), and CYP3A inhibition (HLM, midazolam and testosterone substrates) were tested. The test concentration was 10 μM. The incubation time was 10 min at 37° C. The detection method was by HPLC-MS/MS. The experiments were duplicated, and the % inhibition of the control values was averaged (FIG. 8).

Series [4] has as its target T3, ornithine aminotransferase (OAT) (Homo sapiens, UniProt P04181).
T3 sequence (P04181 26-439): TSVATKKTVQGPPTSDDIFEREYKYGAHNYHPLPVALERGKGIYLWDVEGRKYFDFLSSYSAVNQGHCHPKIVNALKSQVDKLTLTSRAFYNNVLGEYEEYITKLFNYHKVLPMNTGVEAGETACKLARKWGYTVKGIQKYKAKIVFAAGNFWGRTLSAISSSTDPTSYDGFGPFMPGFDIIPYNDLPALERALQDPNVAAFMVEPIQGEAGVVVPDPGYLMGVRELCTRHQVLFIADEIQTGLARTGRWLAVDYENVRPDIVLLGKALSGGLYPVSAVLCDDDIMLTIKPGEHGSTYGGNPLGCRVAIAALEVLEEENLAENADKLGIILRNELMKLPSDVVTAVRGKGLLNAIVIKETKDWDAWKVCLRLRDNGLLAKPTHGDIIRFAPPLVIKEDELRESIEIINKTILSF
To be noted: read-out: KI for inactivation of OAT.
Description: All assays were performed in duplicate, and the remaining OAT activity at each preincubation time at each inhibitor concentration was averaged. The natural logarithm of the percentage of the remaining OAT activity was plotted against the preincubation time at each inhibitor concentration to obtain the kobs (slope) value for each concentration. The kobs is the rate constant describing the inactivation at each inhibitor concentration. kobs is replotted against the inhibitor concentration using nonlinear regression analysis (GraphPad Prism 6™; GraphPad Software Inc.). KI and kinact were estimated from equation (3):

T1 sequence (Q12809 whole entry): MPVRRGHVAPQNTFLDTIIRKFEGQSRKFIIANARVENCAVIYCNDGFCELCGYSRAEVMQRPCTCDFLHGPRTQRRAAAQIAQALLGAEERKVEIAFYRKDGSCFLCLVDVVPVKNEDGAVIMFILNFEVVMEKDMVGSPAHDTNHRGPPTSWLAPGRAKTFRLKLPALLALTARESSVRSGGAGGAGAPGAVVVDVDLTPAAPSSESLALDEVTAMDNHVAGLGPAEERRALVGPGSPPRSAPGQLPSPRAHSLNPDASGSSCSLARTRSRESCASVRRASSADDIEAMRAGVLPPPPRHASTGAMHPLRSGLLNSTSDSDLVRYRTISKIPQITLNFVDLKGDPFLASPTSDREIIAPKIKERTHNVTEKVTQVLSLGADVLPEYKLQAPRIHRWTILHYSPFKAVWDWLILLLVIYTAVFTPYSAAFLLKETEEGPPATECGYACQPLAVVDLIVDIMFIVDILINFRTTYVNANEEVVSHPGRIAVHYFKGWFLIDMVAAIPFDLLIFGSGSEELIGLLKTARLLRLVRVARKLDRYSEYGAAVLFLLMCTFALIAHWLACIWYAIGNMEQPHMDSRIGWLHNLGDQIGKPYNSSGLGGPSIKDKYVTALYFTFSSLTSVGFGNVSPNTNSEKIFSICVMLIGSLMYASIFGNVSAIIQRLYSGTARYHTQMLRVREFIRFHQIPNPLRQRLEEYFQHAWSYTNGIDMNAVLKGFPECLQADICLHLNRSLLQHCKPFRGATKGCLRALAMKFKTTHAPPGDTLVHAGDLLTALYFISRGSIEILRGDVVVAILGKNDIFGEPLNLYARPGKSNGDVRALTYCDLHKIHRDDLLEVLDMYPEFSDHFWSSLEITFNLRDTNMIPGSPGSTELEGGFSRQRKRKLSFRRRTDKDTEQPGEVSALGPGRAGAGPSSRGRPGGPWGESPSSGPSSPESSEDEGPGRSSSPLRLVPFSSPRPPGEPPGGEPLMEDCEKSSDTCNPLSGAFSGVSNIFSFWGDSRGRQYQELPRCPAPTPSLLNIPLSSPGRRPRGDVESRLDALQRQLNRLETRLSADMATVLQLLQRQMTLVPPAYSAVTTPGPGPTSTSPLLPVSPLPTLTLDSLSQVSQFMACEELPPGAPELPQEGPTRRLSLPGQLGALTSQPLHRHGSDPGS

As to `N[C@H]1C=C(C(=O)O)CC1=C(F)F` [Compound 1, (S)-3-Amino-4-(difluoromethylenyl)cyclopent-1-ene-1-carboxylic acid Hydrochloride], in series [1], the “cocaine-induced activation (metabolic demand) in the hippocampus” value is recorded as “attenuated; also recorded: all gone”. Further, the IC50 in series [2] and in series [3] was over 4000 µM in each case. Further, at hERG channel, the “inhibition of the activity of the hERG channel” value is “does not inhibit”. In addition, the fraction unbound in “Plasma protein binding” was 0.73. Besides, the “inhibition or induction of CYP 2B6” value on CYP2B6 was “does not inhibit or induce”. Further, in series [4], the KI (inactivation) turned out to be 3.3 µM.

In general, IC50 refers to the concentration that inhibits the measured activity by half. For orientation: fraction unbound means free concentration divided by total concentration. Lower therefore signals extensive binding.
